Patent US20140107100A1, “Benzoxazepines as Inhibitors of PI3K/mTOR and Methods of Their Use and Manufacture” (EXELIXIS, INC., priority 2010, published 2014)

Target: mTOR/GbL/Raptor (mTORC1) (Homo sapiens, UniProt P42345)
Assay: mTOR/GbL/Raptor (mTORC1) ELISA assay, phosphorylation of 4E-BP1
Type: biochemical
Conditions: 0.2 nM mTORC1, 40 uM ATP, 50 nM NHis-tagged 4E-BP1, 120 minutes; read-out: IC50 in this assay (mTORC1 ELISA)
Procedure, shortened: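 Phospho-4E-BP1 was quantified by luminescent ELISA (anti-phospho-4E-BP1 IgG, HRP-tagged secondary) after capture of the His-tagged substrate on Ni-chelate plates.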

Compound	IC50
C=C(C)c1c(C)nc(N)nc1N1CCOc2c(C)cc(-c3cnc4sc(N)nc4c3)cc2C1 [Compound 130, 6-{4-[2-amino-6-methyl-5-(1-methylethenyl)pyrimidin-4-yl]-9-methyl-2,3,4,5-tetrahydro-1,4-benzoxazepin-7-yl}[1,3]thiazolo[5,4-b]pyridin-2-amine]	≤ 100 nM
COCCc1c(C)nc(N)nc1N1CCOc2c(C)cc(-c3cnc4sc(N)nc4c3)cc2C1 [Compound 16, 6-(4-{2-amino-6-methyl-5-[2-(methyloxy)ethyl]pyrimidin-4-yl}-9-methyl-2,3,4,5-tetrahydro-1,4-benzoxazepin-7-yl)[1,3]thiazolo[5,4-b]pyridin-2-amine]	≤ 100 nM
Cc1cc(-c2cnc3sc(N)nc3c2)cc2c1OCCN(c1nc(CN3CCCC3)ncc1C(C)C)C2 [Compound 92, 6-{9-methyl-4-[5-(1-methylethyl)-2-(pyrrolidin-1-ylmethyl)pyrimidin-4-yl]-2,3,4,5-tetrahydro-1,4-benzoxazepin-7-yl}[1,3]thiazolo[5,4-b]pyridin-2-amine]	≤ 100 nM
CNc1nc(-c2cc(C)c3c(c2)CN(c2nc(N)nc(C)c2C(C)C)CCO3)cs1 [Compound 112, 4-methyl-5-(1-methylethyl)-6-{9-methyl-7-[2-(methylamino)-1,3-thiazol-4-yl]-2,3-dihydro-1,4-benzoxazepin-4(5H)-yl}pyrimidin-2-amine]	100 to 500 nM
Cc1cc(-c2cnc3sc(N)nc3c2)cc2c1OCCN(c1nc(CO)nc(C)c1C(C)C)C2 [Compound 64, {4-[7-(2-amino[1,3]thiazolo[5,4-b]pyridin-6-yl)-9-methyl-2,3-dihydro-1,4-benzoxazepin-4(5H)-yl]-6-methyl-5-(1-methylethyl)pyrimidin-2-yl}methanol]	≤ 100 nM
Cc1cc(-c2ccc(N)nc2)cc2c1OCCN(c1nc(N)nc(C)c1C(C)C)C2 [Compound 24, 4-[7-(6-aminopyridin-3-yl)-9-methyl-2,3-dihydro-1,4-benzoxazepin-4(5H)-yl]-6-methyl-5-(1-methylethyl)pyrimidin-2-amine]	100 to 500 nM
COc1nc(C)c(C(C)C)c(N2CCOc3c(C)cc(-c4cnc5sc(N)nc5c4)cc3C2)n1 [Compound 152, 6-{9-methyl-4-[6-methyl-5-(1-methylethyl)-2-(methyloxy)pyrimidin-4-yl]-2,3,4,5-tetrahydro-1,4-benzoxazepin-7-yl}[1,3]thiazolo[5,4-b]pyridin-2-amine]	≤ 100 nM
Cc1cc(-c2cnc3sc(N)nc3c2)cc2c1OCCN(c1nc(C(O)C(F)(F)F)nc(C)c1C(C)C)C2 (stereo not drawn) [Compound 94, 1-{4-[7-(2-amino[1,3]thiazolo[5,4-b]pyridin-6-yl)-9-methyl-2,3-dihydro-1,4-benzoxazepin-4(5H)-yl]-6-methyl-5-(1-methylethyl)pyrimidin-2-yl}-2,2,2-trifluoroethanol]	≤ 100 nM
COc1cc(-c2cnc3sc(N)nc3c2)cc2c1OCCN(c1nc(N)nc(C)c1C(C)C)C2 [Compound 140, 6-{4-[2-amino-6-methyl-5-(1-methylethyl)pyrimidin-4-yl]-9-(methyloxy)-2,3,4,5-tetrahydro-1,4-benzoxazepin-7-yl}[1,3]thiazolo[5,4-b]pyridin-2-amine]	100 to 500 nM
Cc1cc(-c2cnc(N)s2)cc2c1OCCN(c1nc(N)nc(C)c1C(C)C)C2 [Compound 84, 4-[7-(2-amino-1,3-thiazol-5-yl)-9-methyl-2,3-dihydro-1,4-benzoxazepin-4(5H)-yl]-6-methyl-5-(1-methylethyl)pyrimidin-2-amine]	≤ 100 nM
Cc1cc(-c2cnc3nc[nH]c3c2)cc2c1OCCN(c1nc(N)nc(C)c1C(C)C)C2 [Compound 163, 4-[7-(1H-imidazo[4,5-b]pyridin-6-yl)-9-methyl-2,3-dihydro-1,4-benzoxazepin-4(5H)-yl]-6-methyl-5-(1-methylethyl)pyrimidin-2-amine]	≤ 100 nM
Cc1cc(-c2ccnc(F)c2)cc2c1OCCN(c1nc(N)nc(C)c1C(C)C)C2 [Compound 83, 4-[7-(2-fluoropyridin-4-yl)-9-methyl-2,3-dihydro-1,4-benzoxazepin-4(5H)-yl]-6-methyl-5-(1-methylethyl)pyrimidin-2-amine]	100 to 500 nM
Cc1cc(-c2cnc3sc(N)nc3c2)cc2c1OCCN(c1nc(N)nc(C)c1C(C)C)C2 [Compound 3, 6-{4-[2-amino-6-methyl-5-(1-methylethyl)pyrimidin-4-yl]-9-methyl-2,3,4,5-tetrahydro-1,4-benzoxazepin-7-yl}[1,3]thiazolo[5,4-b]pyridin-2-amine]	≤ 100 nM
Cc1cc(-c2cnc3sc(N)nc3c2)cc2c1OCCN(c1nc(C3CC3)nc(C)c1C(C)C)C2 [Compound 150, 6-{4-[2-cyclopropyl-6-methyl-5-(1-methylethyl)pyrimidin-4-yl]-9-methyl-2,3,4,5-tetrahydro-1,4-benzoxazepin-7-yl}[1,3]thiazolo[5,4-b]pyridin-2-amine]	≤ 100 nM
Cc1cc(-c2cnc3sc(N)nc3c2)cc2c1OCCN(c1ncccc1C(N)=O)C2 [Compound 39, 2-[7-(2-amino[1,3]thiazolo[5,4-b]pyridin-6-yl)-9-methyl-2,3-dihydro-1,4-benzoxazepin-4(5H)-yl]pyridine-3-carboxamide]	100 to 500 nM
COC(C)c1c(C)nc(C)nc1N1CCOc2c(C)cc(-c3cnc4sc(N)nc4c3)cc2C1 (stereo not drawn) [Compound 142, 6-(4-{2,6-dimethyl-5-[1-(methyloxy)ethyl]pyrimidin-4-yl}-9-methyl-2,3,4,5-tetrahydro-1,4-benzoxazepin-7-yl)[1,3]thiazolo[5,4-b]pyridin-2-amine]	≤ 100 nM
Cc1cc(-c2nnc(N)s2)cc2c1OCCN(c1nc(CN(C)CC(F)F)nc(C)c1C(C)C)C2 [Compound 168, 5-{4-[2-{[(2,2-difluoroethyl)(methyl)amino]methyl}-6-methyl-5-(1-methylethyl)pyrimidin-4-yl]-9-methyl-2,3,4,5-tetrahydro-1,4-benzoxazepin-7-yl}-1,3,4-thiadiazol-2-amine]	≤ 100 nM
C=Cc1c(C)nc(N)nc1N1CCOc2c(C)cc(-c3cnc4sc(N)nc4c3)cc2C1 [Compound 9, 6-[4-(2-amino-5-ethenyl-6-methylpyrimidin-4-yl)-9-methyl-2,3,4,5-tetrahydro-1,4-benzoxazepin-7-yl][1,3]thiazolo[5,4-b]pyridin-2-amine]	≤ 100 nM
CC(=O)NCc1nc(C)c(C(C)C)c(N2CCOc3c(C)cc(-c4cnc5sc(N)nc5c4)cc3C2)n1 [Compound 119, N-({4-[7-(2-amino[1,3]thiazolo[5,4-b]pyridin-6-yl)-9-methyl-2,3-dihydro-1,4-benzoxazepin-4(5H)-yl]-6-methyl-5-(1-methylethyl)pyrimidin-2-yl}methyl)acetamide]	≤ 100 nM
CCCc1c(C)nc(N)nc1N1CCOc2c(C)cc(-c3cnc4sc(N)nc4c3)cc2C1 [Compound 41, 6-[4-(2-amino-6-methyl-5-propylpyrimidin-4-yl)-9-methyl-2,3,4,5-tetrahydro-1,4-benzoxazepin-7-yl][1,3]thiazolo[5,4-b]pyridin-2-amine]	≤ 100 nM
Cc1cc(-c2cnc3sc(N)nc3c2)cc2c1OCCN(c1ncccc1C#N)C2 [Compound 38, 2-[7-(2-amino[1,3]thiazolo[5,4-b]pyridin-6-yl)-9-methyl-2,3-dihydro-1,4-benzoxazepin-4(5H)-yl]pyridine-3-carbonitrile]	100 to 500 nM
